Experimental data taken from US20200309872A1, “APPARATUS AND METHOD OF AIR-SUSPENDED BIOFABRICATION OF TISSUE-ENGINEERED ORGAN CONSTRUCTS AND CONGLOMERATES OF SPHEROIDS, CELLS AND OTHER BIOLOGICAL OBJECTS BY USING MAGNETIC FIELD” (priority 2019, published 2020).

Columns and labels:
Type in all cases: cell-based
[1] = tested on: chondrospheres from primary sheep chondrocytes; test: Mechanical testing of tissue spheroids (parallel-plate compression, Microsquisher); conditions: for elastic modulus of spheroids: 24 hours, 0 mM control 2.91±0.15 kPa
Experimental: The mechanical properties of tissue spheroids were measured by a micro-scale parallel-plate compression testing system Microsquisher (CellScale, Canada) with associated SquisherJoy software. Tissue spheroids with a starting cell number of 8000 cells were formed using Corning spheroid microplates. They were cultured 3 days and then placed in 0, 50 and 18 250 mM Gd3+ concentrations for 24 hours prior to mechanical characterization. For mechanical testing spheroids were placed in a PBS-filled bath at 37° C. and compressed to 50% deformation in 20 sec. The microbeams with diameters 152.4 μm (recommended max force […]) and 304.8 μm (recommended max force […]) were employed depending on the stiffness and sensitivity required to measure tissue spheroids from different cell types. The force-displacement data obtained from the compression test were converted to stress-strain curves and the lower portion of the curve (0-20% strain) was used to obtain a linear regression line and estimate the Young's modulus. In each group eight samples of spheroids were measured.
The influence of gadolinium Gd3+ on mechanical properties of tissue spheroids was estimated by tensiometry using parallel plates modification. […] The values of elastic modulus of spheroids in 0 and 50 mM Gd3+ solutions were 2.91±0.15 kPa and 18 2.95±0.1 kPa, correspondingly. […] This observation can be explained by low viability of tissue spheroids in 250 mM Gd3+ solution.
The sharp rise of the curve in the area of high strain values is associated with an increase of the tissue spheroid cross section. […] The stress-strain curve changes practically linearly before this strain; in this section we calculated the Young's modulus.

[2] = tested on: chondrospheres from primary sheep chondrocytes; test: Fusion of 30 chondrospheres into a microtissue construct in non-adhesive microplate
Experimental: To check the possibility of microtissue construct biofabrication at different concentrations of Gd3+, 30 chondrospheres were placed in the same well of non-adhesive microplate and allowed fusion for 48 hours (FIG. 5c). […] Scale bar −500 μm.

[3] = tested on: chondrospheres from primary sheep chondrocytes; test: Spheroid fusion assay (spheroid doublets)
Experimental: Spheroid fusion assay was performed using Corning spheroid microplates (Corning, cat.# 4520). Pairs of 3-day-old tissue spheroids with a starting cell number of 8000 cells were placed in contact in 0, 50 and 250 mM Gd3+ concentrations and incubated for 7 days. Bright-field images of spheroid doublets were obtained at points 0 h, 4 h, 6 h, 1 day, 2 days, 3 days, 4 days and 7 days using Nikon Eclipse Ti-S microscope. Contact length, intersphere angle and doublet length were measured using Image J 1.48v software (NIH, Bethesda, Md., USA) and plotted as a function of time using GraphPad Prism software (GraphPad Software, Inc., La Jolla, Calif.). Doublet length (FIG. 5) was normalized to initial doublet length. Measurements for each parameter were reported as mean ±S.E.M.
To investigate the fusion of tissue spheroids at different Gd3+ concentrations, the pairs of spheroids were placed in contact with each other in the same well of low adhesion microplate and allowed to fuse for 7 days. The kinetics of tissue spheroid fusion was monitored and analyzed daily at bright-field under inverted microscope. Contact length, intersphere angle and doublet length were measured. […] Spheroid doublet in 0 mM Gd3+ solution shortened faster than spheroid doublet in 50 mM Gd3+ solution.

[4] = tested on: chondrospheres from primary sheep chondrocytes; test: Estimation of spheroid cell density by cell counting on semi-thin sections
Experimental: Spheroid cell density was estimated by analysis of semi-thin sections of tissue spheroids using Image J 1.48v software (NIH, Bethesda, Md., USA).
(§1) The viability of cells within tissue spheroids was analyzed by measuring the luminescent signal generated by luciferin-luciferase interconnection as a function of cytoplasmic ATP concentration. […] The highly statistically significant difference (p<0.0005) in cell density corresponded to 85% in 50 mM Gd3+ solution compared to 100% in 0 mM Gd3+ solution, while the cell density at 250mM Gd3+ concentration was 40% (FIG. 3c).

[5] = tested on: chondrospheres from primary sheep chondrocytes; test: Histological analysis on semi-thin sections of tissue spheroids (toluidine blue)
Experimental: Tissue spheroids were fixed with 2.5% glutaraldehyde/PBS and then treated with 1% osmium tetraoxide/PBS. The samples were dehydrated by soaking in a series of solutions of increasing concentrations of ethanol, stained with 1% uranyl acetate/70% ethanol and finally embedded to araldite-epon mixture. Semi-thin sections were prepared on a LKB-III ultratome (Sweden), stained with 1% toluidine blue and then examined using a light microscope (Leica DM 2500, Germany) equipped with a digital camera (Leica DFC 290, Germany).
A histological analysis on semi-thin sections of 3-day-old tissue spheroids was performed in order to estimate possible toxic effects and to determine an optimal nontoxic Gd3+ concentration (FIG. 3a). […] Scale bar—100μm.

[6] = tested on: chondrospheres from primary sheep chondrocytes; test: Tissue spheroid viability, CellTiter-Glo 3D (cytoplasmic ATP luminescence); conditions: 24 hours of incubation
Experimental: The viability of tissue spheroids was assessed using the CellTiter-Glo 3D kit according to the manufacturer protocol. Briefly, 3-day-old tissue spheroids with a starting cell number of 8000 cells were placed in 0, 50 and 250 mM Gd3+ concentrations for 24 hours. Then CellTiter-Glo 3D kit was added and luminescence was recorded after 30 min incubation using VICTOR X3 Multilabel Plate Reader (Perkin Elmer, USA).
as §1

CNC(=O)CN(CCN(CCN(CC(=O)[O-])CC(=O)NC)CC(=O)[O-])CC(=O)[O-].[Gd+3] [Gd3+, Gadodiamide]
effect on tissue spheroids Young's modulus ([1]; 50 mM Gd3+ in the growth medium): does not affect | elastic modulus of spheroids ([1]; 50 mM Gd3+): 2.95±0.1 kPa | decrease of Young's modulus ([1]; 250 mM Gd3+): ~93% | elastic modulus of spheroids ([1]; 250 mM Gd3+): 0.14±0.05 kPa | construct formation from 30 chondrospheres ([2]; 50 mM Gd3+, 2 days of incubation): formation of compact constructs was observed | construct formation from 30 chondrospheres ([2]; 250 mM Gd3+, 48 hours): no constructs were formed | fusion of spheroid pair (contact length, intersphere angle, doublet length) ([3]; 50 mM Gd3+, up to 7 days): contact lengths and intersphere angles increased as a function of time and doublet lengths shortened gradually | cytotoxicity ([3]; 250 mM Gd3+): high cytotoxicity | fusion of spheroid pair ([3]; 250 mM Gd3+, up to 7 days): continued to fuse during first 24 hours and then no further progressive aggregation was observed | intersphere angle ([3]; seventh day of incubation, follows the 0 and 50 mM Gd3+ results, concentration not restated, indicates complete fusion): 179 ° | cell density compared to 100% in 0 mM Gd3+ solution ([4]; 50 mM Gd3+ solution): 85% | cell density compared to 100% in 0 mM Gd3+ solution ([4]; 250 mM Gd3+): 40% | cell density (histology, qualitative) ([5]; 50 mM Gd3+ solution): cell density did not change | cytoplasm staining ([5]; 50 mM Gd3+ solution): slightly reduced | toxic effect on chondrospheres morphology ([5]; 250 mM Gd3+, 3-day-old spheroids, toluidine blue staining): severe toxic effect | cell density (histology, qualitative) ([5]; 250 mM Gd3+, cell death and apoptosis, pycnotic nuclei, extracellular debris): cell density dramatically reduced | viability of tissue spheroids ([6]; 50 mM Gd3+): remained viable | viability of tissue spheroids ([6]; 250 mM Gd3+): significant toxic effect
